{
  "source": "patent US20200270310A1",
  "about": "“MAFG AS A POTENTIAL THERAPEUTIC TARGET TO RESTORE CHEMOSENSITIVITY IN PLATINUM-RESISTANT CANCER CELLS” (FUNDACÓIN PARA LA INVESTIGACIÓN BIOMÉDICA DEL HOSPITAL …, priority 2017, published 2020)",
  "molecules": {"B1": {"name": "GCGGATGAAGACTGGTGTCGATGCATGTGTAGTGCATTTCGAGCCGTTCTATTGGTGTGCCCTAAATACGAGCAAC (nucleic acid)", "chain": "GCGGATGAAGACTGGTGTCGATGCATGTGTAGTGCATTTCGAGCCGTTCTATTGGTGTGCCCTAAATACGAGCAAC", "modifications": "chemistry not given here", "notes": "DNA aptamer selected against the MAFG protein by SELEX"}},
  "type_in_all_cases": "cell-based, human",
  "key": {"H1299 cells [1]": {"system": "H1299 cells", "experiment": "Viability to CDDP with and without apMAFG6F", "source_text": "The human cancer cells H23 and A2780, and the HEK-293T epithelial cells were purchased from ATCC (Manassas, USA) and ECACC (Sigma, Spain) and cultured as recommended. The CDDP-resistant variants H23R and A2780R were established in our laboratory as previously described, using CDDP (Farma Ferrer, Spain) for cell viability assays. To validate the results obtained from the resistant cell lines established in our laboratory, we also used the CDDP-resistant lung cancer cell line H1299, with IC50 over 7, purchased from ATCC and maintained as recommended.\nHEK293 and H23S/R cells were seeded into 96-well plates then transfected with 5, 12.5, 25, 75 and 100 nM of MAFG aptamers or treated with PBS-Mg using Jet Pei PolyPlus transfection reagent (PolyPlus Transfection, USA). The dose of 25 nM aptamer was afterwards used in combination with increased doses of CDDP to assay viability and ROS production as described above. To confirm the aptamer-transfection efficiency cells were seeded in 24-well plates for aptamer isolation and confirmation of aptamer transfection by quantitative analysis. A Myc-DDK-tagged ORF clone of MAFG the negative control pCMV6 were used for in transient transfection (OriGene, USA) in combination with MAFG-aptamers following the same procedure."}, "A2780S cells": {"system": "A2780S cells", "experiment": "Response to CDDP after overexpression of miR-7 candidate target genes", "experimental": "(§1) cDNA plasmids transfection: a Myc-DDK-tagged ORF clone of MAFG, ELK-1 or ABCA1 and the negative control pCMV6 were used for in transient transfection (OriGene, USA). H23 and A2780 cells were plated onto 60-mm dishes at 6×10^5 cells/dish and transfected with a negative control, MAFG, ELK-1 or ABCA1 vectors (IDs: RC221486; RC208921 and RC221861) using jet-PEI DNA Transfection Reagent (PolyPlus Transfection, USA). For stable overexpression, lentiviruses carrying ELK-1 cDNA (Applied Biological Materials, Canada) were obtained by cotransfecting 15 μg of the specific lentiviral vector (pGIPZ-nonsilencing or pLenti-GIII-CMV-hELK-1-GFP-2A-Puro) and […] of each packaging vector (pCD-NL-BH and pMD2-VSV-G) in 10 million HEK 293T cells using Lipofectamine 2000 (Invitrogen, USA). Supernatants were taken at 48 hours posttransfection. A2780S cells were plated onto 60-mm dishes at 1×10^5 cells/dish and transduced with supernatant carrying nonsilencing or ELK-1 lentivirus, and polybrene was added (5 μg/ml).\n(§2) To determine if the expression of the miR-7 candidate target genes was linked to CDDP response, we conducted their in transient overexpression in the sensitive cells comparing their response to CDDP with their parental resistant and sensitive cell lines, both transfected with an empty vector."}, "H23S cells": {"system": "H23S cells", "experiment": "Response to CDDP after overexpression of miR-7 candidate target genes", "experimental": "as §1, §2"}, "H23R cells": {"system": "H23R cells", "experiment": "ROS production and viability after aptamer transfection and CDDP treatment", "experimental": "FIG. 7: Viability and ROS production assay in H23R cells after apMAFG6F transfection. Each experimental group was exposed for 72 h to 6 different CDDP concentrations, and data were normalized to each untreated control, set to 100%. The data represent the mean±SD of at least 2 independent experiments performed in duplicate at each drug concentration for each cell line analyzed.\nH23/A2780 cells were cultured in 96-well black plates at density of 10,000 cells/well. Cells were treated with 6 different doses of CDDP for 24, 48 and 72 h in RPMI containing 10% FBS. Then treatments were removed and cells were loaded with the fluorescent probe 2′,7′-dichlorodihydrofluorescein diacetate (H2DCFDA) (10 μM) for 45 minutes in RPMI medium (FBS free). Cells were washed twice with RPMI (10% FBS), and fluorescence was recorded in a Fluostar Optima, each hour, over 4 hours period. […] ROS production was calculated dividing the mean H2DCFDA fluorescence by the mean viability. […] All experiments included cells treated with RPMI alone (Basal), and one well without cells as fluorescence basal.\nH23/A2780 cells were cultured in 96-well black plates at density of 10,000 cells/well. […] Cells were washed twice with RPMI (10% FBS), and fluorescence was recorded in a Fluostar Optima at 520 nm after excitation at 485 nm. […] ROS production was calculated dividing the mean H2DCFDA fluorescence by the mean viability. […]"}, "H1299 cells [2]": {"system": "H1299 cells", "experiment": "Expression of MAFG and HMOX1 in cells carrying the aptamer", "conditions": "cells carrying apMAFG6F", "experimental": "For semiquantitative RT-PCR, 500 ng of total RNA isolated from cell lines was used for RT reaction using PrimeScript™ RT Master (Clontech-Takara, USA) and subsequent semiquantitative PCR using Promega PCR Mix (Promega, USA) as previously described. Relative quantification was performed by measuring the intensity of band amplified using ImageJ software. Primers for HMOX1 (F: 5′-[…]-3′; R: 5′-[…]-3′), MAFG (F: 5′-[…]-3′; R: 5′-[…]-3′) and GAPDH (F: 5′-GAGAGACCCTCACTGCTG-3′; R: 5′-[…]-3′) were designed to include the probe from the array in order to assure the correct transcript identification."}, "[3]": {"conditions": "versus sensitive line with empty vector"}},
  "note": "Entries after “also recorded” stand apart in the source; their conditions may differ.",
  "data": [
    {"molecule": "[NH2][Pt]([NH2])([Cl])[Cl]", "note": "[CDDP, Cisplatin]", "values": [
      {"measurement": "CDDP IC50", "setting": "H1299 cells [1]; H1299, as stated in materials, unit not given", "result": "over 7"},
      {"measurement": "CDDP IC50", "setting": "H1299 cells [1]; untransfected H1299", "result": 10, "unit": "µg/mL"},
      {"measurement": "response to CDDP after transient ELK-1 overexpression", "setting": "A2780S cells; 48 h of exposure to the drug", "result": "did not change the response to CDDP"},
      {"measurement": "sensitivity to CDDP after stable ELK-1 overexpression", "setting": "A2780S cells; lentiviral transduction", "result": "did not change the sensitivity to CDDP"},
      {"measurement": "CDDP resistance index after MAFG overexpression", "setting": "A2780S cells; [3]", "result": 1.6},
      {"measurement": "CDDP RI after ABCA1 overexpression", "setting": "H23S cells; versus empty vector, not statistically significant (p=0.796)", "result": 1.5},
      {"measurement": "CDDP-RI after MAFG overexpression", "setting": "H23S cells; [3]", "result": 1.7}
    ]},
    {"molecule": "B1", "values": [
      {"measurement": "cell viability after aptamer transfection and CDDP", "setting": "H23R cells; measured in parallel to ROS", "result": "decrease of cell viability; also recorded: decrease in cell viability"},
      {"measurement": "ROS production after aptamer transfection and CDDP", "setting": "H23R cells; resistant cells carrying aptamer vs untransfected, p<0.005 at 4 μg/ml CDDP", "result": "increase of ROS production; also recorded: linear dose-response relationship"},
      {"measurement": "HMOX1 expression", "setting": "H1299 cells [2]", "result": "decrease"},
      {"measurement": "MAFG expression", "setting": "H1299 cells [2]", "result": "decrease"}
    ]}
  ]
}
